From US20260193264A1, “BENZOYPARAZINE PYRAZINES AND THEIR USES” (FOGHORN THERAPEUTICS INC., priority 2022, published 2026)

Legend:
[1] = molecular target: T1, HiBiT-BRM fusion protein in stable HeLa cell line (Homo sapiens, UniProt P51531); assay: HiBiT-BRM cell-based degradation assay (Nano-Glo HiBiT Lytic Detection, 24 h); set-up: DC50: scale not given here; conditions: HeLa HiBiT-BRM cells; for DC50: read-out: BRM HiBit Degradation IC50; for BRM HiBit Degradation Maximum (%): top dose 30 μM
T1 construct: expressed in transfected cells
How it was run: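 Stable HiBiT-BRM HeLa cells were treated with 10-point 3-fold serial dilutions (30 μM final top dose, duplicate) for 24 h, then lysed with LgBiT-containing detection reagent and luminescence read. Degradation % was normalised to DMSO (high control) and 2 μM reference BRM/BRG1 degrader (low control).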

[2] = molecular target: T2, HiBit-BRG1 fusion protein in stable HeLa cell line expressing HiBit-BRG1 and LgBit (Homo sapiens, UniProt P51532); assay: HiBiT-BRG1 cell-based degradation assay (Nano-Glo HiBiT, 24 h); conditions: HeLa HiBit-BRG1/LgBit cells; for DC50: read-out: BRMG1 HiBit Degradation IC50; for Dmax: top dose 30 μM, read-out: BRG1 HiBit Degradation Maximum (%)
T2 construct: expressed in transfected cells
How it was run: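 Stable HeLa line co-expressing HiBiT-BRG1 and LgBiT, compound-treated 24 h; luminescence read after Nano-Glo HiBiT lytic reagent. % degradation normalised between DMSO (high control) and 2 μM reference BRM/BRG1 degrader (low control).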

T2 sequence (P51532 whole entry, the tested form may be a part): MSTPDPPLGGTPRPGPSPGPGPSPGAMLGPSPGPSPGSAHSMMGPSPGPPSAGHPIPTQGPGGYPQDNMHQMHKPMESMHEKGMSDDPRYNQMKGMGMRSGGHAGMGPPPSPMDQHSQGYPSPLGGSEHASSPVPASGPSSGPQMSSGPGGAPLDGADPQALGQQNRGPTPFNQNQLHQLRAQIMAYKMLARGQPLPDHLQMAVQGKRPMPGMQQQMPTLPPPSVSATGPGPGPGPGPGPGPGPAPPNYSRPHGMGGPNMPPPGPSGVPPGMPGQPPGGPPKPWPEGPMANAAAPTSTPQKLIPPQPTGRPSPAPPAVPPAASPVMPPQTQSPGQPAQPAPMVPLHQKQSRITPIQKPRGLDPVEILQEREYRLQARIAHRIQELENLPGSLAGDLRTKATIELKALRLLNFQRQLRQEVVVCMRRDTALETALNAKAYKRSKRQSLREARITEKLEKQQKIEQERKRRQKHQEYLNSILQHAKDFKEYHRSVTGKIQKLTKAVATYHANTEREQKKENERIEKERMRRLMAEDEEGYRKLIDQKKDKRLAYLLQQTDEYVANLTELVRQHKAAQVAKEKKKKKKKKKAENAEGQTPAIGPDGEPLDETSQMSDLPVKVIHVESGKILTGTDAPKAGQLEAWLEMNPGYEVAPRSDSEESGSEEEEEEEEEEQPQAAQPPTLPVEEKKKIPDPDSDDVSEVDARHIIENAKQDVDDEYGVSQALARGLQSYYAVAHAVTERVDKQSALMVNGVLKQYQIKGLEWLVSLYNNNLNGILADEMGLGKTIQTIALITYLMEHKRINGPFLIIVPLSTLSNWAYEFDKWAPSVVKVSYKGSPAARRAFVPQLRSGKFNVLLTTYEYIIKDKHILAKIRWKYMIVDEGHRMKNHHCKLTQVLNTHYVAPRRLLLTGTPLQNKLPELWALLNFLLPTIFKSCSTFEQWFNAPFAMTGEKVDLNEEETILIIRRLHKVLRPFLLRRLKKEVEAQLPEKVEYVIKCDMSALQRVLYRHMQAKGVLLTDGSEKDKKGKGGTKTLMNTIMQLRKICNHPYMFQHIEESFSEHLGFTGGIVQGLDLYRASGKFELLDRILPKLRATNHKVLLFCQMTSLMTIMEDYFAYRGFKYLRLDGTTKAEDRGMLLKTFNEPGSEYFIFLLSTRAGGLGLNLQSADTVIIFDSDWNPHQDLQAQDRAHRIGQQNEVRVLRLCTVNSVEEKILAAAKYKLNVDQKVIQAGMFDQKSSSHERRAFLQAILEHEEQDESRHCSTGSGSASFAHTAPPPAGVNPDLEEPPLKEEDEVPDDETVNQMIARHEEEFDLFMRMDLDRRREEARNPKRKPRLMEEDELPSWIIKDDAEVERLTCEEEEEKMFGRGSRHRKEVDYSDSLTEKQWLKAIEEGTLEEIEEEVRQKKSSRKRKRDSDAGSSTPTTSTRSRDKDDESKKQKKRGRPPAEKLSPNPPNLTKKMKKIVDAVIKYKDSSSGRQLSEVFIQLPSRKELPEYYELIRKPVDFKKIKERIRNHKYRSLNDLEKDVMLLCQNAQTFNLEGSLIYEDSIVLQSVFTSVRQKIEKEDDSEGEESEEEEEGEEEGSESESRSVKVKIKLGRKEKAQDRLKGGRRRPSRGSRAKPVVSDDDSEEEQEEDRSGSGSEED
T1 sequence (P51531 whole entry, the tested form may be a part): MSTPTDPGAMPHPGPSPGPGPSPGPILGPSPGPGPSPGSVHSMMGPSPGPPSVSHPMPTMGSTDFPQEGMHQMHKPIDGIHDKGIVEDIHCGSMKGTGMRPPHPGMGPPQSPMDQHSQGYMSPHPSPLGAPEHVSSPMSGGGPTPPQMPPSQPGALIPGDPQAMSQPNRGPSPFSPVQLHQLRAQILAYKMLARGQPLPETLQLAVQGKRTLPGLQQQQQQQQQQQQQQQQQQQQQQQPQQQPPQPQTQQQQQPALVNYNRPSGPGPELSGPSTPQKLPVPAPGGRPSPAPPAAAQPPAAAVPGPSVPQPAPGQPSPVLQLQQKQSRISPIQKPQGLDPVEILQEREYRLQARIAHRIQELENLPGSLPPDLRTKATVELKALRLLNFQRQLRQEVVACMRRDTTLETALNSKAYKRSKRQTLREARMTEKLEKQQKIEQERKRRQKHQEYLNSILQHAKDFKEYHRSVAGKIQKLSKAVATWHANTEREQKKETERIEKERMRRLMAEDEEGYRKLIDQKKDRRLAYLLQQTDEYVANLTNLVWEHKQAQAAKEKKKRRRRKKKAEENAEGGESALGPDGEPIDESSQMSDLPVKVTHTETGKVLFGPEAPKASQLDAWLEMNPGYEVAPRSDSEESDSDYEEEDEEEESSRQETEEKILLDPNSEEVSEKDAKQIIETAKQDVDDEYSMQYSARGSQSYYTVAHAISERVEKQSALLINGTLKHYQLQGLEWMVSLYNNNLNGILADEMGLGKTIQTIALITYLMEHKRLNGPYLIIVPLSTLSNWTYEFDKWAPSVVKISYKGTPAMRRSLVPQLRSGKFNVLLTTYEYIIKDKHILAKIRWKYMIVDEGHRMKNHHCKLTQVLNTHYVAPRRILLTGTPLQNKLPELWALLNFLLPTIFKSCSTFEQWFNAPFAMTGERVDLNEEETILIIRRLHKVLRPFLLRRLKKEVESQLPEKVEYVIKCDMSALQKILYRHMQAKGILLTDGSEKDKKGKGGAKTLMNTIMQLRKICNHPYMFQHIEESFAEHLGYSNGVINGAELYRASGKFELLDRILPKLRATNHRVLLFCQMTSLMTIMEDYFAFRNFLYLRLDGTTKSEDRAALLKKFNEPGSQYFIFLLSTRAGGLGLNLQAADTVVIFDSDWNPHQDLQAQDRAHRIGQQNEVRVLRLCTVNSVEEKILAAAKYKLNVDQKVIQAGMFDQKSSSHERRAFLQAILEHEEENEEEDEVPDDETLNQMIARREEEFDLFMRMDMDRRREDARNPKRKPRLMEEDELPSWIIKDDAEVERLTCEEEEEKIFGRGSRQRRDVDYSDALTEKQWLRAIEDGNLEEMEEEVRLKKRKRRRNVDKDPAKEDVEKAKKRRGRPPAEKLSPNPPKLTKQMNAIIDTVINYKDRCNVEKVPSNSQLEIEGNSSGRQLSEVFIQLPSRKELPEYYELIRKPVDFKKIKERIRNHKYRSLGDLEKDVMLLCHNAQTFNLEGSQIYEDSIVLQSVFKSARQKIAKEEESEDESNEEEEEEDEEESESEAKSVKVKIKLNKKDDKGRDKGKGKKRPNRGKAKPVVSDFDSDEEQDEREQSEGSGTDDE

DC50 [1]	DC50 [2]	Dmax [2]	SMILES	BRM HiBit Degradation Maximum (%) [1]
< 10 nM	> 10 nM	> 75%	Cc1ncsc1-c1ccc([C@H](C)NC(=O)[C@@H]2C[C@@H](O)CN2C(=O)C(C(C)C)n2cc(N3CCC(CN4CCN(c5ccc6cc(-c7ccccc7O)nnc6c5)CC4)CC3)nn2)cc1 (stereo partly drawn) [Compound 259, (2S,4R)-4-hydroxy-1-(2-(4-(4-((4-(3-(2-hydroxyphenyl)cinnolin-7-yl)piperazin-1-yl)methyl)piperidin-1-yl)-1H-1,2,3-triazol-1-yl)-3-methylbutanoyl)-N-((S)-1-(4-(4-methylthiazol-5-yl)phenyl)ethyl)pyrrolidine-2-carboxamide]	A (“A” indicates maximum degradation ≥75%)
> 10 nM	> 10 nM	> 75%	Cc1ncsc1-c1ccc([C@H](C)NC(=O)[C@@H]2C[C@@H](O)CN2C(=O)C(C(C)C)n2cc(N3CCN(CC4CCCN(c5ccc6cc(-c7ccccc7O)nnc6c5)C4)CC3)nn2)cc1 (stereo partly drawn) [Compound 260, (2S,4R)-4-hydroxy-1-(2-(4-(4-((1-(3-(2-hydroxyphenyl)cinnolin-7-yl)piperidin-3-yl)methyl)piperazin-1-yl)-1H-1,2,3-triazol-1-yl)-3-methylbutanoyl)-N-((S)-1-(4-(4-methylthiazol-5-yl)phenyl)ethyl)pyrrolidine-2-carboxamide]	A (“A” indicates maximum degradation ≥75%)
> 10 nM	> 10 nM	> 75%	Cc1ncsc1-c1ccc([C@H](C)NC(=O)[C@@H]2C[C@@H](O)CN2C(=O)C(C(C)C)n2cc(N3CCCC(CN4CCN(c5ccc6cc(-c7ccccc7O)nnc6c5)CC4)C3)nn2)cc1 (stereo partly drawn) [Compound 261, (2S,4R)-4-hydroxy-1-(2-(4-(3-((4-(3-(2-hydroxyphenyl)cinnolin-7-yl)piperazin-1-yl)methyl)piperidin-1-yl)-1H-1,2,3-triazol-1-yl)-3-methylbutanoyl)-N-((S)-1-(4-(4-methylthiazol-5-yl)phenyl)ethyl)pyrrolidine-2-carboxamide]	A (“A” indicates maximum degradation ≥75%)
> 100 nM	> 100 nM	> 50%	Cc1ncsc1-c1ccc([C@H](C)NC(=O)[C@@H]2C[C@@H](O)CN2C(=O)C(C(C)C)n2cc(N3CCC4(CCCN4c4ccc5cc(-c6ccccc6O)nnc5c4)C3)nn2)cc1 (stereo partly drawn) [Compound 262, (2S,4R)-4-hydroxy-1-(2-(4-(1-(3-(2-hydroxyphenyl)cinnolin-7-yl)-1,7-diazaspiro[4.4]nonan-7-yl)-1H-1,2,3-triazol-1-yl)-3-methylbutanoyl)-N-((S)-1-(4-(4-methylthiazol-5-yl)phenyl)ethyl)pyrrolidine-2-carboxamide]	A (“A” indicates maximum degradation ≥75%)
> 10 nM	> 10 nM	> 75%	Cc1ncsc1-c1ccc([C@H](C)NC(=O)[C@@H]2C[C@@H](O)CN2C(=O)C(C(C)C)n2cc(N3CCC4C(C3)CN4c3ccc4cc(-c5ccccc5O)nnc4c3)nn2)cc1 (stereo partly drawn) [Compound 263, (2S,4R)-4-hydroxy-1-(2-(4-(7-(3-(2-hydroxyphenyl)cinnolin-7-yl)-3,7-diazabicyclo[4.2.0]octan-3-yl)-1H-1,2,3-triazol-1-yl)-3-methylbutanoyl)-N-((S)-1-(4-(4-methylthiazol-5-yl)phenyl)ethyl)pyrrolidine-2-carboxamide]	A (“A” indicates maximum degradation ≥75%)
> 10 nM		< 50%	Cc1ncsc1-c1ccc([C@H](C)NC(=O)[C@@H]2C[C@@H](O)CN2C(=O)C(C(C)C)n2cc(N3CCC4(CCN4c4ccc5cc(-c6ccccc6O)nnc5c4)C3)nn2)cc1 (stereo partly drawn) [Compound 264, (2S,4R)-4-hydroxy-1-(2-(4-(1-(3-(2-hydroxyphenyl)cinnolin-7-yl)-1,6-diazaspiro[3.4]octan-6-yl)-1H-1,2,3-triazol-1-yl)-3-methylbutanoyl)-N-((S)-1-(4-(4-methylthiazol-5-yl)phenyl)ethyl)pyrrolidine-2-carboxamide]	A (“A” indicates maximum degradation ≥75%)
> 100 nM	> 100 nM	> 75%	Cc1ncsc1-c1ccc([C@H](C)NC(=O)[C@@H]2C[C@@H](O)CN2C(=O)C(C(C)C)n2cc(N3CCC34CN(c3ccc5cc(-c6ccccc6O)nnc5c3)C4)nn2)cc1 (stereo partly drawn) [Compound 265, (2S,4R)-4-hydroxy-1-(2-(4-(6-(3-(2-hydroxyphenyl)cinnolin-7-yl)-1,6-diazaspiro[3.3]heptan-1-yl)-1H-1,2,3-triazol-1-yl)-3-methylbutanoyl)-N-((S)-1-(4-(4-methylthiazol-5-yl)phenyl)ethyl)pyrrolidine-2-carboxamide]	A (“A” indicates maximum degradation ≥75%)
< 10 nM	< 10 nM	> 75%	Cc1ncsc1-c1ccc([C@H](C)NC(=O)[C@@H]2C[C@@H](O)CN2C(=O)C(C(C)C)n2cc(N3CCC(C4CCN(c5ccc6cc(-c7ccccc7O)nnc6c5)CC4)C3)nn2)cc1 (stereo partly drawn) [Compound 266, (2S,4R)-4-hydroxy-1-(2-(4-(3-(1-(3-(2-hydroxyphenyl)cinnolin-7-yl)piperidin-4-yl)pyrrolidin-1-yl)-1H-1,2,3-triazol-1-yl)-3-methylbutanoyl)-N-((S)-1-(4-(4-methylthiazol-5-yl)phenyl)ethyl)pyrrolidine-2-carboxamide]	A (“A” indicates maximum degradation ≥75%)
> 100 nM		< 50%	Cc1ncsc1-c1ccc([C@H](C)NC(=O)[C@@H]2C[C@@H](O)CN2C(=O)[C@H](C(C)C)n2cnc(N3CC4(CN(c5ccc6cc(-c7ccccc7O)nnc6c5)C4)C3)n2)cc1 [Compound 267, (2S,4R)-4-hydroxy-1-[(2S)-2-(3-{6-[3-(2-hydroxyphenyl)cinnolin-7-yl]-2,6-diazaspiro[3.3]heptan-2-yl}-1,2,4-triazol-1-yl)-3-methylbutanoyl]-N-[(1S)-1-[4-(4-methyl-1,3-thiazol-5-yl)phenyl]ethyl]pyrrolidine-2-carboxamide]	B (“B” indicates maximum degradation ≥50%)
< 10 nM	> 10 nM	> 75%	Cc1ncsc1-c1ccc([C@H](C)NC(=O)[C@@H]2C[C@@H](O)CN2C(=O)C(C(C)C)n2cc(N3CCC(C4CN(c5ccc6nnc(-c7ccccc7O)cc6c5)C4)C3)nn2)cc1 (stereo partly drawn) [Compound 269, (2S,4R)-4-hydroxy-1-(2-(4-(3-(1-(3-(2-hydroxyphenyl)cinnolin-6-yl)azetidin-3-yl)pyrrolidin-1-yl)-1H-1,2,3-triazol-1-yl)-3-methylbutanoyl)-N-((S)-1-(4-(4-methylthiazol-5-yl)phenyl)ethyl)pyrrolidine-2-carboxamide]	A (“A” indicates maximum degradation ≥75%)
< 10 nM	> 10 nM	> 75%	Cc1ncsc1-c1ccc([C@H](C)NC(=O)[C@@H]2C[C@@H](O)CN2C(=O)C(C(C)C)n2cc(N3CCCC(CN4CCN(c5ccc6nnc(-c7ccccc7O)cc6c5)CC4)C3)nn2)cc1 (stereo partly drawn) [Compound 270, (2S,4R)-4-hydroxy-1-(2-(4-(3-((4-(3-(2-hydroxyphenyl)cinnolin-6-yl)piperazin-1-yl)methyl)piperidin-1-yl)-1H-1,2,3-triazol-1-yl)-3-methylbutanoyl)-N-((S)-1-(4-(4-methylthiazol-5-yl)phenyl)ethyl)pyrrolidine-2-carboxamide]	A (“A” indicates maximum degradation ≥75%)
> 10 nM		< 50%	Cc1ncsc1-c1ccc([C@H](C)NC(=O)[C@@H]2C[C@@H](O)CN2C(=O)[C@H](C(C)C)n2cnc(N3CC4(CN(c5ccc6cc(-c7ccccc7O)nnc6c5)C4)C3)c2)cc1 [Compound 271, (2S,4R)-4-hydroxy-1-((S)-2-(4-(6-(3-(2-hydroxyphenyl)cinnolin-7-yl)-2,6-diazaspiro[3.3]heptan-2-yl)-1H-imidazol-1-yl)-3-methylbutanoyl)-N-((S)-1-(4-(4-methylthiazol-5-yl)phenyl)ethyl)pyrrolidine-2-carboxamide]	A (“A” indicates maximum degradation ≥75%)
> 100 nM		< 50%	Cc1ncsc1-c1ccc([C@H](C)NC(=O)[C@@H]2C[C@@H](O)CN2C(=O)[C@H](C(C)C)n2cnc(N3CC4(CN(c5ccc6nnc(-c7ccccc7O)cc6c5)C4)C3)c2)cc1 [Compound 272, (2S,4R)-4-hydroxy-1-((S)-2-(4-(6-(3-(2-hydroxyphenyl)cinnolin-6-yl)-2,6-diazaspiro[3.3]heptan-2-yl)-1H-imidazol-1-yl)-3-methylbutanoyl)-N-((S)-1-(4-(4-methylthiazol-5-yl)phenyl)ethyl)pyrrolidine-2-carboxamide]	A (“A” indicates maximum degradation ≥75%)

SMILES	DC50 [1]	DC50 [2]	Dmax [2]	BRM HiBit Degradation Maximum (%) [1]
Cc1ncsc1-c1ccc([C@H](C)NC(=O)[C@@H]2C[C@@H](O)CN2C(=O)C(C(C)C)n2cc(N3C4CCC3CN(c3ccc5cc(-c6ccccc6O)nnc5c3)C4)nn2)cc1 (stereo partly drawn) [Compound 268, (2S,4R)-4-hydroxy-1-(2-(4-(3-(3-(2-hydroxyphenyl)cinnolin-7-yl)-3,8-diazabicyclo[3.2.1]octan-8-yl)-1H-1,2,3-triazol-1-yl)-3-methylbutanoyl)-N-((S)-1-(4-(4-methylthiazol-5-yl)phenyl)ethyl)pyrrolidine-2-carboxamide]	> 100 nM		< 50%	A (“A” indicates maximum degradation ≥75%)
